In ChEMBL document CHEMBL1177790, “Activity of substituted thiophene sulfonamides against malarial and mammalian cyclin dependent protein kinases” (Bioorg Med Chem Lett, 2010) one finds IC50 and selectivity ratio data, which are given here for 28 compounds.

The structures appear in SMILES notation. Bounds are passed on as bounds.

As usually defined, the IC50 is the concentration that gives 50% inhibition.

In one data set the target is T1, Protein kinase Pfmrk (Plasmodium falciparum, UniProt P90584).
T1 sequence (P90584 whole entry): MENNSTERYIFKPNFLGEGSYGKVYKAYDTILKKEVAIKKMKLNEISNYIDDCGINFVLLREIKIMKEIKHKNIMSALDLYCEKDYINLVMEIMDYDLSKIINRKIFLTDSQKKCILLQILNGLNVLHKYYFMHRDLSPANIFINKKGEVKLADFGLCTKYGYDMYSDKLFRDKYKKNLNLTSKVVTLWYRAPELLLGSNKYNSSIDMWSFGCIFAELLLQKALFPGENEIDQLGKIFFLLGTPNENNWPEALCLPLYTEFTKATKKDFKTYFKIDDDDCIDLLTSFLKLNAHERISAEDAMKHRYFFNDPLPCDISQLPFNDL
Nature of the data set: Inhibition of His6x-tagged Plasmodium falciparum Pfmrk expressed in Escherichia coli by microtiter plate scintillation counting.

Another data set has as its system DU-145. The experiment in a line: Cytotoxicity against human DU145 cells after 24 hrs by MTT assay. Conditions: DU-145, 24 h. It counts as functional, cell-based. For orientation: Tetrazolium assays rely on reduction of a dye to a coloured formazan, in cell work by metabolically active cells.
Another data set concerns RAW264.7. The experiment in a line: Cytotoxicity against mouse RAW264.7 cells after 24 hrs by MTT assay. It counts as cell-based. To be noted: RAW264.7, 24 h.
For the next data set, the system named is MCF7. The experiment in a line: Cytotoxicity against human MCF7 cells after 24 hrs by MTT assay. Conditions: MCF7, 24 h. It counts as functional, cell-based.
The target in a further data set is CDK6/cyclin D1 (Homo sapiens, UniProt Q00534). Nature of the data set: Inhibition of human CDK6/Cyclin D1. It counts as protein-complex assay.
CDK6/cyclin D1, sequence (P24385 whole entry): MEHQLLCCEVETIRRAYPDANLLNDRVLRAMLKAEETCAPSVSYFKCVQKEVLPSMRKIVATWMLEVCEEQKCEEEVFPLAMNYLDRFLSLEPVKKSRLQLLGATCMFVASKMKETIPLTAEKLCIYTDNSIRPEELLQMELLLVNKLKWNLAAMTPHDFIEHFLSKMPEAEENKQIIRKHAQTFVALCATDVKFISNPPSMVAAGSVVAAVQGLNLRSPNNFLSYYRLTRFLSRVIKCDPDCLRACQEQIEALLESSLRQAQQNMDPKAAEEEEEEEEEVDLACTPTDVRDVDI
CDK6/cyclin D1, sequence (Q00534 whole entry): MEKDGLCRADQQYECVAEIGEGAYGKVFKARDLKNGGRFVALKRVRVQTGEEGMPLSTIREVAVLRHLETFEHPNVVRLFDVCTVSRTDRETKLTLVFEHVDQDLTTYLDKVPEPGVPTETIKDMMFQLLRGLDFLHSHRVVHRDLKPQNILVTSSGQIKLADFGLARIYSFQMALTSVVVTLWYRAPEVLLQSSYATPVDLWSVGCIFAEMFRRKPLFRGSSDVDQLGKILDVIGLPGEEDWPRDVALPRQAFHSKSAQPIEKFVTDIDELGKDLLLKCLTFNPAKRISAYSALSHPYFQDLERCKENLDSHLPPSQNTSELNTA
Data set [1] can be described thus: Cytotoxicity against human Hs578 cells after 24 hrs by MTT assay. Format: functional, cell-based. Conditions: Hs578, 24 h.
Data set [2] deals with Cyclin-dependent kinase 7/ cyclin H (Homo sapiens, UniProt P50613). The experiment in a line: Inhibition of human CDK7/Cyclin H/MAT1. Format: protein-complex assay.
Cyclin-dependent kinase 7/ cyclin H, sequence (P51946 whole entry): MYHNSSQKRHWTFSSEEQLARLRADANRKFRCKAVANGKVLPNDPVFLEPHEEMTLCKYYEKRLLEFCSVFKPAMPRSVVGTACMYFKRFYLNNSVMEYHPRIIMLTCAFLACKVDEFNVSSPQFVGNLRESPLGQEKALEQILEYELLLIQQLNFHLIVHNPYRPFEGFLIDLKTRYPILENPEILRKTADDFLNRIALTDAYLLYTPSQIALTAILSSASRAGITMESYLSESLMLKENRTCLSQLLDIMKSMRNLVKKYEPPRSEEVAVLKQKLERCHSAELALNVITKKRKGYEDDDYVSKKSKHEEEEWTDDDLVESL
Cyclin-dependent kinase 7/ cyclin H, sequence (P50613 whole entry): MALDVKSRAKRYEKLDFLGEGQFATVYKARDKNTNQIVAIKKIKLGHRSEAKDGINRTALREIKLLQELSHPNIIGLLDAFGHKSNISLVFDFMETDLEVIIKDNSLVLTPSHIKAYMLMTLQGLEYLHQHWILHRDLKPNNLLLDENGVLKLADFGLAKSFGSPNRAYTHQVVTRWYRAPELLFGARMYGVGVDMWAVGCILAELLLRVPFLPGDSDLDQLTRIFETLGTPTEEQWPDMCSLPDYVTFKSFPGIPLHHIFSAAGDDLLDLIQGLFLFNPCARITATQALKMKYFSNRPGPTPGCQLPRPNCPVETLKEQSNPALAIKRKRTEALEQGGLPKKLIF
The next data set relates to Plasmodium falciparum. Nature of the data set: Antimalarial activity against chloroquine-resistant Plasmodium falciparum W2 assessed as inhibition of [3H]hypoxanthine incorporation after 24 hrs by microtiter plate scintillation counting. It counts as functional, organism-based.
Data set [3] deals with Cyclin-dependent kinase 2/cyclin A (Homo sapiens, UniProt P24941). Nature of the data set: Inhibition of human CDK2/Cyclin A. It counts as protein-complex assay.
Data set [4] addresses Cyclin-dependent kinase 1/cyclin B1 (Homo sapiens, UniProt P06493). Nature of the data set: Inhibition of human CDK1/cyclin B. It counts as protein-complex assay.
A further data set has as its system LoVo. The experiment in a line: Cytotoxicity against human LoVo cells after 24 hrs by MTT assay. Format: functional, cell-based.
Data set [5] can be described thus: Therapeutic index, IC50 for Plasmodium falciparum W2 to IC50 for mice (Mus musculus) RAW264.7 cells.

Cyclin-dependent kinase 1/cyclin B1, sequence (P06493 whole entry): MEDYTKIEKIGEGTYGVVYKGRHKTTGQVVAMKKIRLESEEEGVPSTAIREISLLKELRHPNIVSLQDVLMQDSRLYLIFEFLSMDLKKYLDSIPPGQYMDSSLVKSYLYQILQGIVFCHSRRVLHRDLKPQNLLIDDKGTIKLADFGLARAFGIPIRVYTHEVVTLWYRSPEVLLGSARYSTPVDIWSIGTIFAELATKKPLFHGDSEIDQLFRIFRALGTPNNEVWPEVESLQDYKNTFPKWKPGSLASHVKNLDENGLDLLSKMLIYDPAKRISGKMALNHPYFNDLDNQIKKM
Cyclin-dependent kinase 1/cyclin B1, sequence (P14635 whole entry, further chain): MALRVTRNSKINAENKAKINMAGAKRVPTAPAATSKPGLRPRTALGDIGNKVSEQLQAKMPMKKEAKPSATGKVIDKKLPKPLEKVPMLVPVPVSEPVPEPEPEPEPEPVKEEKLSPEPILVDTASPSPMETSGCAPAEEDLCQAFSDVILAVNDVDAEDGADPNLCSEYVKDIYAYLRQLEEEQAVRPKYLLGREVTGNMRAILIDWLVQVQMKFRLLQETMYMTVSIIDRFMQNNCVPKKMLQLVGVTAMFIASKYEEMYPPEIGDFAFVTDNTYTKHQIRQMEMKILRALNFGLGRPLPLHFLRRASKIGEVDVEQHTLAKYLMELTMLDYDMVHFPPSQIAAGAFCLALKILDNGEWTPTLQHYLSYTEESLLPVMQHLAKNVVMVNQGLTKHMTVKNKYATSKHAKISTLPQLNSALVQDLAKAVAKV

As to `O=C(NNC(=O)c1ccccc1F)c1ccc2ccccc2c1`, at Protein kinase Pfmrk, the half-maximal inhibitory concentration (IC50) was 0.4 µM.
Still for that read-out and setting: as for `Cc1ccccc1NC(=O)NC(=O)c1ccccc1Cl`, the figure is 0.2 µM; as for `N#CC(NCC(O)c1ccccc1)c1ccc(Cl)c(Cl)c1` (stereo not drawn), 0.6 µM.
On the same count and under the same terms, as for `O=S(=O)(Nc1ccc(C(F)(F)F)cc1)c1ccc(C(F)(F)F)cc1`, the figure is 16.5 µM.
Still for that read-out and setting: under `Cc1ccc(NS(=O)(=O)c2ccc(Br)cc2)cc1Cl` stands 15.9 µM; under `NS(=O)(=O)c1cc([N+](=O)[O-])c(Cl)s1`, 17.4 µM; under `Cc1cccc(C)c1N(C(=O)CCl)S(=O)(=O)c1cc(Cl)sc1Cl`, 20.7 µM.
With `Cc1ccc(N(C(=O)CCl)S(=O)(=O)c2c(Cl)sc(Cl)c2Cl)cc1`, on Protein kinase Pfmrk, the IC50 was determined as 40.1 µM.
As to `O=C(CBr)N(c1ccccc1)S(=O)(=O)c1cc(Cl)sc1Cl`, the IC50 in the data set on DU-145 amounted to 91 µM; in the data set on RAW264.7, 89.5 µM; in the data set on MCF7, 62 µM; against CDK6/cyclin D1 it was 34.9 µM; against Protein kinase Pfmrk it was 0.6 µM; in data set [1], 51.1 µM. For the same compound, the half-inhibitory concentration (IC50) in data set [2] was determined as 33.4 µM; in the data set on Plasmodium falciparum, 23.3 µM; in data set [3], 28.5 µM; in [4] it was 21.5 µM; in the data set with LoVo, 71.6 µM.
Take `O=C(CBr)N(c1ccc(Cl)cc1)S(=O)(=O)c1cc(Cl)sc1Cl`: inhibition on Protein kinase Pfmrk was half-maximal at 0.8 µM (IC50).
Compound `Cc1ccc(Cl)cc1NS(=O)(=O)c1cc(Cl)ccc1Cl` registered a concentration for half-maximal inhibition (IC50) on Protein kinase Pfmrk of 45.4 µM.
Regarding `O=S(=O)(Nc1cccc(C(F)(F)F)c1)c1ccc(Cl)cc1`, the IC50 against Protein kinase Pfmrk amounted to 13.1 µM.
`O=S(=O)(c1cc(Cl)sc1Cl)N(SC(Cl)(Cl)Cl)c1ccccc1`: the IC50 against Protein kinase Pfmrk was 29.7 µM.
`O=S(=O)(Nc1ccc(Cl)cc1SC(Cl)(Cl)Cl)c1cc(Cl)sc1Cl` came in with an IC50 against Protein kinase Pfmrk of 19.7 µM.
Take `O=S(=O)(Nc1cccc(C(F)(F)F)c1)c1cc(Cl)c(Cl)cc1Cl`: the IC50 is 44.2 µM in the data set with DU-145; 90.4 µM in the data set with RAW264.7; 63.8 µM with MCF7; 58.8 µM against CDK6/cyclin D1; 0.6 µM against Protein kinase Pfmrk; 55.1 µM in [1]. The half-maximal inhibitory concentration (IC50) in [2] came out at 0.2 µM; in the data set on Plasmodium falciparum, 24.7 µM; in [3], 10 µM; in data set [4], 0.1 µM; with LoVo it was 65.1 µM.
Consider `COc1ccc(S(=O)(=O)Nc2cccc(C(F)(F)F)c2)cc1`, for which 48.4 µM corresponded to half-maximal inhibition at Protein kinase Pfmrk (IC50).
Still for that read-out and setting: as for `O=S(=O)(Nc1ccccc1)c1cc(Cl)sc1Cl`, the figure is 14.9 µM.
`Cc1ccc(NS(=O)(=O)c2cc(Cl)sc2Cl)cc1`: the half-inhibitory concentration (IC50) in the data set with DU-145 was 81.1 µM; with RAW264.7, 74.7 µM; in the data set on MCF7, 66.1 µM; against CDK6/cyclin D1, 51.3 µM; against Protein kinase Pfmrk, 0.6 µM; in data set [1] it was 40.2 µM. Also, the IC50 in [2] amounted to 0.8 µM; in the data set on Plasmodium falciparum it was 31 µM; in data set [3], 31.4 µM; in data set [4], 49.3 µM; in the data set with LoVo, 69.3 µM.
`Cc1cc(C)c(NS(=O)(=O)c2ccc(Br)cc2)c(C)c1NS(=O)(=O)c1ccc(Br)cc1` gave a half-maximal inhibitory concentration (IC50) against Protein kinase Pfmrk of 50.2 µM.
For `Cc1ccc(Cl)cc1S(=O)(=O)Nc1ccc(Cl)c(Cl)c1`, the IC50 with DU-145 is 45.4 µM; with RAW264.7, 76.6 µM; in the data set on MCF7 it was 57.3 µM; at CDK6/cyclin D1 it was 110 µM; against Protein kinase Pfmrk it was 15.1 µM; in data set [1] it was 54 µM. The concentration for half-maximal inhibition (IC50) is 0.4 µM in data set [2]; 17 µM in the data set on Plasmodium falciparum; 10.5 µM in data set [3]; 0.8 µM in data set [4]; 55 µM in the data set with LoVo.
`Cc1cc(Cl)ccc1NS(=O)(=O)c1cc(Cl)ccc1Cl`: on Protein kinase Pfmrk, inhibition was half-maximal at 11 µM (IC50).
On Protein kinase Pfmrk, `O=S(=O)(Nc1cc(Cl)cc(Cl)c1)c1cc(Cl)sc1Cl` yielded an IC50 of 333 µM.
On the same count and under the same terms, as for `O=S(=O)(Nc1ccc(Cl)cc1)c1c(Cl)sc(Cl)c1Cl`, the figure is 31.5 µM.
Take `Cc1ccc(N(SC(Cl)(Cl)Cl)S(=O)(=O)c2cc(Cl)sc2Cl)cc1`: the IC50 with DU-145 stood at 53 µM; in the data set with RAW264.7 it was 39.3 µM; in the data set on MCF7, 30.1 µM; at CDK6/cyclin D1 it was 18 µM; on Protein kinase Pfmrk, 0.3 µM; in [1], 24.9 µM. Besides, the IC50 in data set [2] turned out to be 0.7 µM; with Plasmodium falciparum, 21.2 µM; in data set [3], 11.5 µM; in data set [4], 10.5 µM; in the data set on LoVo, 70.3 µM.
For `Cc1ccc(N(C(=O)C(Cl)Cl)S(=O)(=O)c2cc(Cl)sc2Cl)cc1`, the concentration for half-maximal inhibition (IC50) on Protein kinase Pfmrk came to 127 µM.
Consider `O=C1Cc2c([nH]c3ccc([N+](=O)[O-])cc23)-c2ccccc2N1` [ALSTERPAULLONE], for which the IC50 was 1.1 µM in the data set with DU-145; 2.2 µM with RAW264.7; 2.7 µM in the data set with MCF7; 1.9 µM in data set [1]; below 1 µM in the data set with LoVo.
For `O=C1Nc2ccccc2/C1=C1/Nc2ccccc2C1=O` [INDIRUBIN], the IC50 in the data set with DU-145 was 6.8 µM; in the data set with RAW264.7 it was 6.1 µM; in the data set with MCF7 it was 6.7 µM; in [1], 6.9 µM; with Plasmodium falciparum it was 1.1 µM; with LoVo it was 2.2 µM.
For the compound `OC(c1cc(C(F)(F)F)nc2c(C(F)(F)F)cccc12)C1CCCCN1` (stereo not drawn) [MEFLOQUINE], the IC50 in the data set with DU-145 is 14.4 µM; with RAW264.7 it was 6.5 µM; in the data set on MCF7, 10.6 µM; in data set [1] it was 12.1 µM; in the data set with Plasmodium falciparum it was 0.1 µM; with LoVo, 7.9 µM. The selectivity ratio in data set [5] is 65.
